In US9593305B2, “Differentiation of pluripotent stem cells” (Janssen Biotech, Inc., priority 2008, dated 2017):

How the values were obtained:
[1] = system: H1 human embryonic stem cells; experiment: Primary screening: definitive endoderm differentiation in the absence of activin A, cell number and SOX17 (Example 3); format: cell-based; conditions: for Cell Number: % of positive control / Sox17 Expression: % of positive control / Sox17 Expression: Average Total Intensity / Cell Number: Average Total Cell Number: 2.5 μM compound, 20 ng/ml Wnt3a days 1-2, no activin A, four-day assay; for Cell Number: Average Total Cell Number: positive control 100 ng/ml activin A + Wnt3a; for Cell Number, % of positive control / Sox17 Intensity % of positive control: Table 2 hit subset of primary screening, no activin A; for Cell Number, % of positive control / Sox17 Intensity % of positive control / SOX17 expression in the absence of activin A: 2.5 μM; for SOX17 expression in the absence of activin A: primary screening
Procedure: Briefly, clusters of H1 human embryonic stem cells were grown on reduced growth factor […]™ (Invitrogen; Cat #1356231)-coated tissue culture plastic. Cells were passaged using collagenase (Invitrogen; Cat #17104-019) treatment and gentle scraping, washed to remove residual enzyme, and plated with even dispersal at a ratio of 1:1 (surface area) on reduced growth factor […]™-coated 96-well black plates (Packard ViewPlates; PerkinElmer; Cat #6005182) using volumes of 100 μl/well. Cells were allowed to attach as clusters and then recover log phase growth over a 1 to 3 day period, feeding daily with MEF conditioned medium supplemented with 8 ng/ml bFGF (R&D Systems; Cat #233-FB). Plates were maintained at 37° C., 5% CO2 in a humidified box throughout the duration of assay.
The compounds tested were made available as 5 mM stocks in 96-well plate format, solubilized in 100% DMSO (Sigma; Cat #D2650) and stored at −80° C. The library compounds were further diluted to an intermediate concentration of 0.2 mM in 50 mM HEPES (Invitrogen; Cat #15630-080), 20% DMSO and stored at 4° C. Test conditions were performed in triplicate, feeding on alternate days over a four-day assay period. Primary screening assays were initiated by aspirating culture medium from each well followed by three washes in PBS (Invitrogen; Cat #14190) to remove residual growth factors and serum. On the first day of assay, test volumes of 200 μl per well were added back containing DMEM:F12 base medium (Invitrogen; Cat #11330-032) supplemented with 0.5% FCS (HyClone; Cat #SH30070.03) and 20 ng/ml Wnt3a (R&D Systems; Cat #1324-WN) plus 2.5 μM test compound. On the third day of assay, test volumes of 200 μl per well were added back containing DMEM:F12 base medium supplemented with 2% FCS plus 2.5 μM test compound, without Wnt3a. Positive control samples contained the same base medium supplemented with FCS, substituting 100 ng/ml recombinant human activin A (PeproTech; Cat #120-14) for the test compound throughout the four-day assay along with Wnt3a (20 ng/ml) added only on days 1 and 2. Negative control samples contained DMEM:F12 base medium supplemented with FCS, adding Wnt3a on days 1 and 2 but omitting activin A.
At the conclusion of four-days of culture, assay plates were washed twice with PBS (Invitrogen; Cat #14190), fixed with 4% paraformaldehyde (Alexis Biochemical; Cat #ALX-350-011) at room temperature for 20 minutes, then washed three times with PBS and permeabilized with 0.5% Triton X-100 (Sigma; Cat #T8760-2) for 20 minutes at room temperature. Cells were washed again three times with PBS and blocked with 4% chicken serum (Invitrogen; Cat #16110082) in PBS for 30 minutes at room temperature. Primary antibody (goat anti-human SOX17; R&D Systems; Cat #AF1924) was diluted 1:100 in 4% chicken serum and added to each well for one hour at room temperature. Alexa Fluor 488 conjugated secondary antibody (chicken anti-goat IgG; Molecular Probes; Cat #AZ1467) was diluted 1:200 in PBS and added to each sample well after washing three times with PBS. To counter stain nuclei, 4 μg/ml Hoechst 33342 (Invitrogen; Cat #H3570) was added for ten minutes at room temperature. Plates were washed once with PBS and left in 100 μl/well PBS for imaging.
Imaging was performed using an IN Cell Analyzer 1000 (GE Healthcare) utilizing the 51008bs dichroic for cells stained with Hoechst 33342 and Alexa Fluor 488. Exposure times were optimized from positive control wells and from untreated negative control wells stained with secondary antibody alone. Images from 15 fields per well were acquired to compensate for any cell loss during the bioassay and subsequent staining procedures. Measurements for total cell number and total SOX17 intensity were obtained from each well using IN Cell Developer Toolbox 1.7 (GE Healthcare) software. Segmentation for the nuclei was determined based on gray-scale levels (baseline range 100-300) and nuclear size. […]

[2] = system: H1 human embryonic stem cells; experiment: Step-wise differentiation, FACS for CXCR4 after step 1 (Example 12); format: cell-based; conditions: compared to activin A and Wnt3a
Procedure: The assay was initiated by aspirating the culture medium from each well and adding back an aliquot (0.5 ml) of test medium. Test conditions for the first step of differentiation were conducted over a three-day period, feeding daily by aspirating and replacing the medium from each well with fresh test medium. On the first day of assay, 100 ng/ml activin A (PeproTech; Cat #120-14) or 200 ng/ml GDF-8 (R&D Systems, Cat #788-G8) was added to respective assay wells where each growth factor was diluted into RPMI-1640 medium (Invitrogen; Cat #22400) with 1% Albumin Bovine Fraction V, Fatty Acid Free (FAF BSA) (MP Biomedicals, Inc; Cat 152401), 1% Probumin (Millipore; Cat #81-068-3) and 20 ng/ml Wnt3a (R&D Systems; Cat #1324-WN/CF). On the second day of assay, 100 ng/ml activin A or 200 ng/ml GDF-8 was diluted into RPMI-1640 medium supplemented with 2% FAF BSA without Wnt3a. In some test samples using GDF-8, Wnt3a was replaced with a either Compound 34 or Compound 56 at a concentration of 2.5 μM, and either Compound 34 or Compound 56 was added daily during all three days of definitive endoderm differentiation. At the conclusion of the first step of differentiation, cells from some wells were harvested for flow cytometry analysis to evaluate levels of CXCR4, a marker of definitive endoderm formation. Additional wells were harvested for RT-PCR analysis to measure other markers of differentiation.
Cells for FACS analysis were blocked in a 1:5 solution of 0.5% human gamma-globulin (Sigma; Cat#G-4386) in PBS (Invitrogen; Cat #14040-133): BD FACS staining buffer-BSA (BD; Cat #554657) for 15 minutes at 4° C. Cells were then stained with antibodies for CD9 PE (BD; Cat #555372), CD99 PE (Caltag; Cat #MHCD9904) and CXCR4 APC(R&D Systems; Cat#FAB 173A) for 30 minutes at 4° C. After a series of washes in BD FACS staining buffer, the cells were stained for viability with 7-AAD (BD; Cat #559925) and run on a BD FACSAiray. A mouse IgG1K Isotype control antibody for both PE and APC was used to gate percent positive cells.

[3] = 200 ng/ml GDF-8 with 2.5 μM compound all three days

## CN1CCC(=O)NCCCNc2cccc(c2)-c2ncnc(n2)Nc2cccc(c2)C1 [Compound 21, 14-Methyl-3,5,7,14,18,22,29-heptaazatetracyclo[21.3.1.1˜2,6˜0.1˜8,12˜]nonacosa-1(27), 2(29), 3,5,8(28), 9,11,23,25-nonaen-17-one]
[1]
  Cell Number: % of positive control: 44.44 % of positive control
  Sox17 Expression: % of positive control: −0.61 % of positive control
  Sox17 Expression: Average Total Intensity: −1.96E+06
  Cell Number: Average Total Cell Number: 4719

## O=C1CCN2CCN(CC2)Cc2cc(Cl)cc(c2)Nc2ncnc(n2)-c2cncc(c2)CCCN1 [Compound 34, 5-Chloro-1,8,10,12,16,22,26,32-octaazapentacyclo[24.2.2.1˜3.7˜0.1˜9,13˜0.1˜14.18˜]tritriaconta-3(33), 4,6,9(32), 10,12,14(31), 15,17-nonaen-23-one]
[1]
  Cell Number, % of positive control: 114.8 % of positive control
  Sox17 Intensity % of positive control: 44.5 % of positive control
[2]; [3]
  percentage of CXCR4 positive cells after step 1: equivalent or higher percentage of CXCR4 positive cells

## CCN1CCCc2cccc(c2)-c2ncnc(n2)Nc2cccc(c2)CCNC(=O)C1 [Compound 29, 18-Ethyl-3,5,7,15,18,28-hexaazatetracyclo[20.3.1.1˜2,6˜0.1˜8,12˜]octacosa-1(26), 2(28), 3,5,8(27), 9,11,22,24-nonaen-16-one]
[1]
  Cell Number, % of positive control: 136.0 % of positive control
  Sox17 Intensity % of positive control: 34.5 % of positive control

## O=C1NCCCc2cncc(c2)-c2ncnc(n2)Nc2cc(Cl)cc(c2)CN2CCCC1C2 (stereo not shown) [Compound 37, 10-Chloro-3,5,7,14,20,26,31-heptaazapentacyclo[22.3.1.1˜2,6˜0.1˜8,12˜0.1˜14,18˜]hentriaconta-1(28), 2(31), 3,5,8(30), 9,11,24,26-nonaen-19-one]
[1]
  Cell Number, % of positive control: 129.3 % of positive control
  Sox17 Intensity % of positive control: 29.1 % of positive control

## CCN1CC(=O)NCCCc2cncc(c2)-c2ncnc(n2)Nc2cc(Cl)cc(c2)C1 [Compound 35, 10-Chloro-14-ethyl-3,5,7,14,17,23,27-heptaazatetracyclo[19.3.1.1˜2,6˜0.1˜8,12]Theptacosa-1(25), 2(27), 3,5,8(26), 9,11,21,23-nonaen-16-one]
[1]
  Cell Number, % of positive control: 158.7 % of positive control
  Sox17 Intensity % of positive control: 86.8 % of positive control
  SOX17 expression in the absence of activin A: SOX17 expression was induced

## CN1CCC(=O)NCCCNc2ncccc2-c2ncnc(n2)Nc2cccc(c2)C1 [Compound 39, 9-Methyl-2,3,4,5,7,8,9,10-octahydro-16H-17,21-(azeno)-11,15-(metheno)pyrido[3,2-g][1,3,5,9,13,17]hexaazacyclotricosin-6(1H)-one]
[1]
  Cell Number, % of positive control: 147.0 % of positive control
  Sox17 Intensity % of positive control: 35.2 % of positive control

## O=C1NCCCc2cncc(c2)-c2ncnc(n2)Nc2cccc(c2)CN2CCC1CC2 [Compound 22, 1,8,10,12,16,22,30-Heptaazapentacyclo[22.2.2.1-3,7˜0.1˜9,13˜1-14,18˜]hentriaconta-3(31), 4,6,9(30), 10,12,14(29), 15,17-nonaen-23-one]
[1]
  Cell Number, % of positive control: 132.7 % of positive control
  Sox17 Intensity % of positive control: 72.4 % of positive control
  SOX17 expression in the absence of activin A: SOX17 expression was induced

## O=C1CCN2CCN(CC2)Cc2cccc(c2)Nc2ncnc(n2)-c2cncc(c2)CCCN1 [Compound 23, 1,8,10,12,16,22,26,32-Octaazapentacyclo[24.2.2.1-3,7˜0.1˜9,13˜0.1˜14,18˜]tritriaconta-3(33), 4,6,9(32), 10,12,14(31), 15,17-nonaen-23-one]
[1]
  Cell Number: % of positive control: 24.13 % of positive control
  Sox17 Expression: % of positive control: −0.48 % of positive control
  Sox17 Expression: Average Total Intensity: −1.56E+06
  Cell Number: Average Total Cell Number: 2563

## Cc1c[nH]c(-c2cnc(NCCNc3ccc(C#N)cn3)nc2-c2ccc(Cl)cc2Cl)n1 [Compound 56, 6-[(2-{[4-(2,4-Dichlorophenyl)-5-(4-methyl-1H-imidazol-2-yl)pyrimidin-2-yl]amino}ethyl)amino]pyridine-3-carbonitrile]
[2]; [3]
  percentage of CXCR4 positive cells after step 1: equivalent or higher percentage of CXCR4 positive cells

## O=C1NCCCc2cncc(c2)-c2ncnc(n2)Nc2cccc(c2)CN2CCCC1C2 (stereo not shown) [Compound 17, 3,5,7,14,20,26,31-Heptaazapentacyclo[22.3.1.1-2,6˜1˜8,12˜1˜14,18˜]hentriaconta-1(28), 2(31), 3,5,8(30), 9,11,24,26-nonaen-19-one]
[1]
  Cell Number, % of positive control: 133.8 % of positive control
  Sox17 Intensity % of positive control: −0.7 % of positive control

## CCN1CC(=O)NCCCc2cc(ccc2F)-c2ncnc(n2)Nc2cc(Cl)cc(c2)C1 [Compound 25, 10-Chloro-14-ethyl-22-fluoro-3,5,7,14,17,27-hexaazatetracyclo[19.3.1.1˜2,6˜0.1˜8,12˜]heptacosa-1(25), 2(27), 3,5,8(26), 9,11,21,23-nonaen-16-one]
[1]
  Cell Number: % of positive control: 146.17 % of positive control
  Sox17 Expression: % of positive control: 20.32 % of positive control
  Sox17 Expression: Average Total Intensity: 4.03E+07
  Cell Number: Average Total Cell Number: 4151

## GDF-8: growth factor GDF-8, also known as myostatin, member of the TGF-β family
[2]; 200 ng/ml GDF-8 with Wnt3a
  percentage of CXCR4 positive cells after step 1: equivalent percentage of CXCR4 positive cells
